“Also recorded” adds a separate entry of the source.
Key:
U1hpII [1] = assay: SPR binding to U1hpII; settings: FIG. 4D
Source text: FIG. 4A-F depict the TBP evolution screen.

HIV TAR = assay: ELISA RNA binding of SUMO fusion proteins, HIV TAR; set-up: species or system HIV-1
Source text: (§1) FIG. 6A-B depicts SUMO-(GGS)3-β2-β3 and graphs of ELISA data. (A) Diagram of the SUMO-(GGS)3-β2-β3 hairpin loop of TBP6.7 fused to SUMO.
(§2) Protein engineering was used to test whether an isolated β2-β3 hairpin of TBP6.7 (FIG. 2) retains TAR binding. Specifically, a fusion protein was created comprising the TBP6.7 β2-β3 hairpin (FIG. 6A) linked by flexible, soluble spacer (GGS)3 to SUMO (Small Ubiquitin-like Modifier), a 12 kDa protein that expresses well in E. coli and stabilizes a variety of structurally diverse fusion proteins.^114 The affinity for TAR was then measured by ELISA (FIG. 6B).
(§3) To test for TAR binding by the isolated β2-β3 loop sequence, we first fused this short peptide to SUMO (Small Ubiquitin-like Modifier). […] Arg-to-Ala mutants were then tested.
(§4) SUMO is 12 kDa protein that expresses well in E. coli and stabilizes a variety of diverse fusion proteins. A β2-β3 loop peptide comprising the sequence L^41-to-F^59—or mutants thereof—was fused to a flexible GGS linker at the SUMO C-terminus, and RNA binding was measured by ELISA. […] Stapling was accomplished by inserting nucleophiles using L44C and F56C mutations. Following treatment with a reducing agent (DTT), chemical cyclization was achieved by SNAr conjugation using polyfluorinated biarylsulfoxide; β2-β3 loop peptides with R-to-A mutations were prepared similarly. […]

U1hpII [2] = assay: ELISA RNA binding of SUMO fusion proteins, U1hpII
Source text: as §1, §2, §3, §4

BIV TAR = assay: ELISA RNA binding of SUMO fusion proteins, BIV TAR; set-up: species or system Bovine immunodeficiency virus
Source text: as §1, §2, §3, §4

TAR = settings: FIG. 4D
Source text: (A) Yeast display platform to identify U1A-derived proteins that bind TAR. […] (C) ELISA data depicting binding between evolved proteins and TAR. […] (E) Sequences of TAR mutants used to elucidate TBP6.6 and TBP 6.7 binding selectivity. (F) ELISA data showing relative affinities between TBP6.6 or TBP6.7.

Row | Molecule | SPR recognition of U1hpII (U1hpII [1]) | ELISA binding to HIV TAR (HIV TAR) | ELISA binding to U1hpII (U1hpII [2]) | ELISA binding to BIV TAR (BIV TAR) | SPR recognition of TAR (TAR)
1 | U1A: parental RRM protein, starting protein whose native target is U1hpII | tightly binds U1hpII | did not interact with BIV or HIV TAR | highest relative level of binding; also recorded: binds U1hpII | did not interact with BIV or HIV TAR | does not bind TAR
2 | SUMO: Small Ubiquitin-like Modifier, a 12 kDa protein, fusion partner control (protein, UniProt Q12306 2-98, looked up) Ubiquitin-like protein SMT3: SDSEVNQEAKPEVKPEVKPETHINLKVSDGSSEIFFKIKKTTPLRRLMEAFAKRQGKEMDSLRFLYDGIRIQADQTPEDLDMEDNDIIEAHREQIGG | – | does not have appreciable TAR binding; also recorded: no appreciable RNA binding; also recorded: does not bind | no appreciable RNA binding; also recorded: does not bind | no appreciable RNA binding; also recorded: does not bind | –

Source: patent US11186614B2, “Anti-HIV peptides” (priority 2016, dated 2021)
